Tested on: lupus nephritis
Assay: Predictability of week 48 partial remission from early reduction in UPCR (Tables 4-8)
Assay type: in vivo, human
Method: In the study reported in Example 1, the predictability of outcomes based on markers at early time points were determined.
This is important because it is undesirable to subject a patient to unnecessary treatment, even if the treatment is relatively safe.
PR is defined as at least 50% reduction in proteinuria (i.e. UPCR).
Sensitivity is defined as the probability that a subject showing PR at 48 weeks would have shown a favorable result with regard to the marker at the designated early time point. In the tables below, this is the ratio of the number of subjects with favorable marker results (early drop or normalization) to the total subjects with 48 week PR.
Specificity is defined as the probability that a subject not showing PR at 48 weeks would have shown an unfavorable result with regard to the marker at the designated early time point. In the tables below, this is the ratio of the number of subjects with unfavorable marker results (no early drop or no normalization) to the total subjects with no 48 week PR.
Positive predictive value is defined as the probability that a subject showing a favorable result with respect to the marker at an earlier time point would show PR at 48 weeks. In the tables below, this is the ratio of the number of subjects with favorable marker results who have 48 week PR to those with favorable marker results (early reduction or yes column).
Negative predictive value is defined as the probability that a subject showing an unfavorable result with respect to the marker at an earlier time point would not show PR at 48 weeks. In the tables below, this is the ratio of the number of subjects with unfavorable marker results who have no PR at 48 weeks to the total subjects with unfavorable marker results (no early reduction or no column).

[1] = 15% reduction in UPCR, Week 2, 23.7 mg BID
[2] = 15% reduction in UPCR, Week 2, 39.5 mg BID
[3] = 15% reduction in UPCR, Week 4, 23.7 mg BID
[4] = 15% reduction in UPCR, Week 6, 39.5 mg BID
[5] = 15% reduction in UPCR, Week 8, 39.5 mg BID
[6] = 15% reduction in UPCR, Week 12, 23.7 mg BID
[7] = 15% reduction in UPCR, Week 12, 39.5 mg BID
[8] = 15% reduction in UPCR, Week 16, 23.7 mg BID
[9] = 15% reduction in UPCR, Week 20, 23.7 mg BID
[10] = 15% reduction in UPCR, Week 20, 39.5 mg BID
[11] = 15% reduction in UPCR, Week 24, 23.7 mg BID
[12] = 15% reduction in UPCR, Week 26, 23.7 mg BID
[13] = 15% reduction in UPCR, Week 26, 39.5 mg BID
[14] = 15% reduction in UPCR, Week 36, 23.7 mg BID
[15] = 15% reduction in UPCR, Week 36, 39.5 mg BID
[16] = 15% reduction in UPCR, Week 48, 23.7 mg BID
[17] = 20% reduction in UPCR, Week 2, 23.7 mg BID
[18] = 20% reduction in UPCR, Week 2, 39.5 mg BID
[19] = 20% reduction in UPCR, Week 4, 23.7 mg BID
[20] = 20% reduction in UPCR, Week 6, 23.7 mg BID
[21] = 20% reduction in UPCR, Week 8, 23.7 mg BID
[22] = 20% reduction in UPCR, Week 8, 39.5 mg BID
[23] = 20% reduction in UPCR, Week 12, 23.7 mg BID
[24] = 20% reduction in UPCR, Week 12, 39.5 mg BID
[25] = 20% reduction in UPCR, Week 16, 23.7 mg BID
[26] = 20% reduction in UPCR, Week 20, 23.7 mg BID
[27] = 20% reduction in UPCR, Week 20, 39.5 mg BID
[28] = 20% reduction in UPCR, Week 24, 23.7 mg BID
[29] = 20% reduction in UPCR, Week 26, 23.7 mg BID
[30] = 20% reduction in UPCR, Week 26, 39.5 mg BID
[31] = 20% reduction in UPCR, Week 36, 23.7 mg BID
[32] = 20% reduction in UPCR, Week 36, 39.5 mg BID
[33] = 20% reduction in UPCR, Week 48, 23.7 mg BID
[34] = 25% reduction in UPCR, Week 2, 23.7 mg BID
[35] = 25% reduction in UPCR, Week 2, 39.5 mg BID
[36] = 25% reduction in UPCR, Week 4, 23.7 mg BID
[37] = 25% reduction in UPCR, Week 6, 23.7 mg BID
[38] = 25% reduction in UPCR, Week 8, 23.7 mg BID
[39] = 25% reduction in UPCR, Week 8, 39.5 mg BID
[40] = 25% reduction in UPCR, Week 12, 23.7 mg BID
[41] = 25% reduction in UPCR, Week 12, 39.5 mg BID
[42] = 25% reduction in UPCR, Week 16, 23.7 mg BID
[43] = 25% reduction in UPCR, Week 20, 23.7 mg BID
[44] = 25% reduction in UPCR, Week 20, 39.5 mg BID
[45] = 25% reduction in UPCR, Week 24, 23.7 mg BID
[46] = 25% reduction in UPCR, Week 24, 39.5 mg BID

## C=C/C=C/C[C@@H](C)[C@@H](O)[C@H]1C(=O)N[C@@H](CC)C(=O)N(C)CC(=O)N(C)[C@@H](CC(C)C)C(=O)N[C@@H](C(C)C)C(=O)N(C)[C@@H](CC(C)C)C(=O)N[C@@H](C)C(=O)N[C@H](C)C(=O)N(C)[C@@H](CC(C)C)C(=O)N(C)[C@@H](CC(C)C)C(=O)N(C)[C@@H](C(C)C)C(=O)N1C [voclosporin]
[1]
  Early Reduction No: 30
  No Week 48 Partial Remission Early Drop: 10
  Week 48 Partial Remission No Early Drop: 16
[2]
  Early Reduction No: 30
  No Week 48 Partial Remission No Early Drop: 9
[3]
  No Week 48 Partial Remission No Early Drop: 11
  Week 48 Partial Remission No Early Drop: 9
[4]
  No Week 48 Partial Remission No Early Drop: 4
  Week 48 Partial Remission No Early Drop: 10
15% reduction in UPCR, Week 8, 23.7 mg BID
  No Week 48 Partial Remission No Early Drop: 7
[5]
  Early Reduction No: 9
  No Week 48 Partial Remission No Early Drop: 4
[6]
  No Week 48 Partial Remission No Early Drop: 4
  Week 48 Partial Remission No Early Drop: 2
[7]
  Early Reduction No: 9
  No Week 48 Partial Remission No Early Drop: 4
[8]
  Early Reduction No: 8
  Week 48 Partial Remission No Early Drop: 3
15% reduction in UPCR, Week 16, 39.5 mg BID
  Early Reduction No: 11
[9]
  Early Reduction No: 3
  No Week 48 Partial Remission No Early Drop: 3
[10]
  Early Reduction No: 9
  Week 48 Partial Remission No Early Drop: 4
[11]
  Early Reduction No: 2
  No Week 48 Partial Remission No Early Drop: 2
15% reduction in UPCR, Week 24, 39.5 mg BID
  Early Reduction No: 10
[12]
  Early Reduction No: 3
  No Week 48 Partial Remission Early Drop: 9
  No Week 48 Partial Remission No Early Drop: 3
[13]
  Early Reduction No: 4
  No Week 48 Partial Remission No Early Drop: 4
[14]
  Early Reduction No: 4
  No Week 48 Partial Remission Early Drop: 10
  No Week 48 Partial Remission No Early Drop: 3
  Week 48 Partial Remission No Early Drop: 1
[15]
  Early Reduction No: 7
  Week 48 Partial Remission No Early Drop: 1
[16]
  Early Reduction No: 2
  No Week 48 Partial Remission Early Drop: 9
  No Week 48 Partial Remission No Early Drop: 2
15% reduction in UPCR, Week 48, 39.5 mg BID
  No Week 48 Partial Remission Early Drop: 10
[17]
  Early Reduction No: 33
  No Week 48 Partial Remission Early Drop: 8
  No Week 48 Partial Remission No Early Drop: 16
[18]
  Early Reduction No: 34
  No Week 48 Partial Remission No Early Drop: 10
[19]
  No Week 48 Partial Remission No Early Drop: 11
  Week 48 Partial Remission No Early Drop: 10
[20]
  No Week 48 Partial Remission Early Drop: 11
  No Week 48 Partial Remission No Early Drop: 7
20% reduction in UPCR, Week 6, 39.5 mg BID
  Week 48 Partial Remission No Early Drop: 10
[21]
  No Week 48 Partial Remission Early Drop: 11
  No Week 48 Partial Remission No Early Drop: 8
[22]
  Early Reduction No: 10
  No Week 48 Partial Remission No Early Drop: 4
[23]
  Early Reduction No: 7
  Week 48 Partial Remission No Early Drop: 2
[24]
  Early Reduction No: 9
  No Week 48 Partial Remission No Early Drop: 4
[25]
  Early Reduction No: 9
  Week 48 Partial Remission No Early Drop: 3
20% reduction in UPCR, Week 16, 39.5 mg BID
  Early Reduction No: 11
[26]
  Early Reduction No: 4
  No Week 48 Partial Remission No Early Drop: 4
[27]
  Early Reduction No: 9
  Week 48 Partial Remission No Early Drop: 4
[28]
  Early Reduction No: 4
  No Week 48 Partial Remission Early Drop: 11
  No Week 48 Partial Remission No Early Drop: 3
  Week 48 Partial Remission No Early Drop: 1
20% reduction in UPCR, Week 24, 39.5 mg BID
  Early Reduction No: 11
[29]
  Early Reduction No: 3
  No Week 48 Partial Remission Early Drop: 9
  No Week 48 Partial Remission No Early Drop: 3
[30]
  Early Reduction No: 4
  No Week 48 Partial Remission No Early Drop: 4
[31]
  Early Reduction No: 4
  No Week 48 Partial Remission Early Drop: 10
  No Week 48 Partial Remission No Early Drop: 3
  Week 48 Partial Remission No Early Drop: 1
[32]
  Early Reduction No: 8
  Week 48 Partial Remission No Early Drop: 2
[33]
  Early Reduction No: 2
  No Week 48 Partial Remission Early Drop: 9
  No Week 48 Partial Remission No Early Drop: 2
20% reduction in UPCR, Week 48, 39.5 mg BID
  No Week 48 Partial Remission Early Drop: 10
[34]
  No Week 48 Partial Remission Early Drop: 8
  No Week 48 Partial Remission No Early Drop: 16
[35]
  No Week 48 Partial Remission No Early Drop: 10
  Week 48 Partial Remission Early Drop: 33
[36]
  No Week 48 Partial Remission No Early Drop: 11
  Week 48 Partial Remission No Early Drop: 11
25% reduction in UPCR, Week 4, 39.5 mg BID
  Week 48 Partial Remission No Early Drop: 16
[37]
  No Week 48 Partial Remission Early Drop: 10
  No Week 48 Partial Remission No Early Drop: 8
  Week 48 Partial Remission No Early Drop: 8
[38]
  No Week 48 Partial Remission Early Drop: 10
  No Week 48 Partial Remission No Early Drop: 9
[39]
  Early Reduction No: 10
  No Week 48 Partial Remission No Early Drop: 4
[40]
  Early Reduction No: 10
  Week 48 Partial Remission No Early Drop: 4
[41]
  Early Reduction No: 9
  No Week 48 Partial Remission No Early Drop: 4
[42]
  Early Reduction No: 10
  No Week 48 Partial Remission Early Drop: 11
  No Week 48 Partial Remission No Early Drop: 7
  Week 48 Partial Remission No Early Drop: 3
25% reduction in UPCR, Week 16, 39.5 mg BID
  Week 48 Partial Remission No Early Drop: 7
[43]
  No Week 48 Partial Remission Early Drop: 11
  Week 48 Partial Remission No Early Drop: 1
[44]
  Early Reduction No: 9
  Week 48 Partial Remission No Early Drop: 4
[45]
  Early Reduction No: 4
  No Week 48 Partial Remission Early Drop: 11
  No Week 48 Partial Remission No Early Drop: 3
  Week 48 Partial Remission No Early Drop: 1
[46]
  No Week 48 Partial Remission No Early Drop: 7
  Week 48 Partial Remission No Early Drop: 7
25% reduction in UPCR, Week 26, 23.7 mg BID
  Early Reduction No: 4
